Experimental findings from US20210015793A1, “COMPOUNDS FOR TREATING CNS- AND NEURODEGENERATIVE DISEASES” (ETH ZURICH, priority 2018, published 2021) are described below.

The nature of series [1]: Serum concentration by HPLC in dogs after oral dosing. Format: in vivo, dog. The settings on record: dogs. The protocol:
(§1) Dog serum concentrations of Compound-1, Compound-1F and Compound-4 were determined with serum isolated from the blood of German shepherd dogs (age: 8-9 months) taken at different time points (2 h, 4 h, 6 h, 8, 10 h, 24 h) after oral drug intake. The steady-state serum concentrations of Compound-1, Compound-1F and Compound-4 were determined in mice with blood isolated at the end of the study by cardiac puncture. Serum proteins were removed by acetonitrile precipitation, and compounds were extracted by chloroform before separation on an HPLC-C18 column (Poroshell 120 EC-C18, Agilent) with an HPLC system (Agilent 1100 Series) and detection at OD 280 nm, for Compound-1 and Compound-1F. Detection of Compound-4 was performed at OD 310 nm. The same extraction method was also used to determine Compound-1F in the serum of healthy human research participants. Dog hematology and biochemical parameters were determined by the Center of Applied Analytical and Veterinary Studies, Cairo, Egypt. ECG and blood pressure were measured by Dr. Mohamed Elsaed, Electrocardiography Unit, Faculty of Veterinary Medicine, Cairo University. The study was approved by the ethical committee of the Center of Applied and Veterinary Studies, Cairo, Egypt. Clinical laboratory parameters of human research participants were determined by the Rabaa El Adaweya Medical Central Hospital, Cairo, Egypt.

Series [2] is described as follows: 28-day repeated oral dosing safety in German shepherd dogs. Format: in vivo, dog. The settings on record: dogs. The protocol:
as §1

Where [3] appears, read: repeated oral dosing 28 days, 200 mg daily.

Structures are written as SMILES.

With `c1cc(-c2ccc3c(c2)OCO3)ncn1` [Compound-4, 4-(1,3-benzodioxol-5-yl)pyrimidine], the “dose dependence of peak serum levels at 2 h after drug intake” value in series [1] (doses of 120 mg, 200 mg and 300 mg, 28 days) is “dose-dependent increase”. Further, the oral bioavailability result in series [1] (oral treatment) is recorded as “good oral bioavailability”. For the same compound, in series [1] (setting [3]), the “serum concentration at t=8 h after intake” value is “undetectable” and the “time to peak serum level after drug intake” value came out at 2 h. The compound also registered a peak serum concentration in series [1] (repeated oral dosing 28 days, daily dose of 200 mg) of 0.56 ± 0.10 µg/mL. Besides, the “blood pressure and heart rate before vs after drug intake” value in series [2] (28 days) is “not different”. In series [2] (28 days at 120, 200 and 300 mg per day), the clinical laboratory parameters result was “within the normal range”. In addition, the tolerability result in series [2] (therapeutic dose range) was “excellent tolerability”.
